The record followed here is US20210353557A1, “ORAL COMPOSITION CONTAINING REDUCED COENZYME Q10, METHOD FOR PRODUCING SAME, METHOD FOR PREVENTING DISCOLORATION AND DISCOLORATION PREVENTING AGENT” (SUNTORY HOLDINGS LIMITED, priority 2018, published 2021).

A short description of this data set: Color difference (ΔE) after storage under accelerated condition, Reference Example 1. The class given is physicochemical. The settings on record: 40° C., 75% RH; for ΔE After 7 days: 7-day (168-hour) storage; for ΔE After 7 days / ΔE 0-Hour storage: n=1; for change in ΔE value after storage (in words): 7 days; for ΔE 0-Hour storage: start of storage. The method, then:
The L value, a value, and b value of a sample were measured using a color difference meter (trade name: Spectrophotometer SE7700, available from Nippon Denshoku Industries Co., Ltd.). • The number n of samples was 3 for each standard unless otherwise mentioned. The average values of the three samples were defined as the L value, a value, and b value of the standard. • Measurement was performed five times for each sample, and the average value was output as the result. The sample was stirred for each measurement operation so that the whole sample was subjected to the measurement. • In the measurement, about 1 g of a sample was weighed out from a Petri dish for use. The sample in the Petri dish was mixed and homogenized before weighing out.
The ΔE value was calculated by the following formula.
ΔE={(ΔL)^2+(Δa)^2+(Δb)^2}^1/2
For each standard after storage for a predetermined period of time, the ΔE value was calculated based on the 0-time value (value after 0-hour storage) of the standard. For a control after storage for a predetermined period of time, the ΔE value was also calculated based on the 0-time value (value after 0-hour storage) of the control.
About 2 g each of the reduced CoQ10, sesamin compound, theanine, and dextrin were put into separate Petri dishes (n=1) and left to stand at a temperature of 40° C. and a humidity of 75% RH (accelerated condition). The L value, a value, and b value were measured at the start of storage (0-hour storage) and after 7-day (168-hour) storage, and then the ΔE value was calculated. For each sample, the change in appearance after seven days from the start of storage was visually observed.

Each structure is given as a SMILES string.

For `COc1c(O)c(C)c(C/C=C(\C)CC/C=C(\C)CC/C=C(\C)CC/C=C(\C)CC/C=C(\C)CC/C=C(\C)CC/C=C(\C)CC/C=C(\C)CC/C=C(\C)CCC=C(C)C)c(O)c1OC` [Standard S-1, Reduced CoQ10], the “ΔE After 7 days” value was 66.4, the “change in ΔE value after storage (in words)” value is “increase in ΔE value over time”, the “appearance by visual observation after seven days” value is given as “orange” and the “ΔE 0-Hour storage” value was found to be 0.0.

For `CCNC(=O)CC[C@H](N)C(=O)O` [Standard S-3, Theanine], the “ΔE After 7 days” value is recorded as 0.1, the “change in ΔE value after storage (in words)” value is on record as “little change in ΔE value after storage”, the “appearance by visual observation after seven days” value was “white to pale yellow” and the “ΔE 0-Hour storage” value was 0.0.
